From patent US20060035966A1, “Irreversible selective androgen receptor modulators and methods of use thereof” (priority 2002, published 2006)
Like-named read-outs stand apart in the source and are kept apart here.

How the values were obtained:
[1] = test system: MCF-7 cells; test: Induction of apoptosis, MCF-7; assay type: cell-based
Experimental: (§1) The ability of DJ 1-31, DJ 1-29, S-NTBA and Compound V to induce apoptosis in different prostate cancer cell lines (DU 145, PC-3, TSU, PPC-1 and LNCaP), in other cancer cell lines (TCCSUP, HT-29 and MCF-7) and in a control cell line (CV-1) was determined and the results are shown in Table 6.

[2] = test system: PC-3 bone metastatic prostate cancer cell line; test: Cytotoxicity, SRB assay, PC-3; assay type: cell-based, human; conditions: Homo sapiens, read-out: IC50 PC-3
Experimental: PPC-1, LNCaP, TSU, PC-3, and DU145 were grown in PRMI-1640 medium containing 2 mM L-glutamine supplemented with 10% fetal bovine serum (FBS). Cells were maintained in a 5% CO2/95% air humidified atomosphere at 37° C.
(§2) The SRB Assay was used to determine cell number during cytotoxocity experiments. The following protocol was used: • 1. Cells were detached with 0.25% trypsin. • 2. Experimental cultures were cultured in 96-well microtiter plates (200 uL growth medium per well; 1,000-200,000 cells per well). • 3. Cultures were fixed with 50 uL 50% TCA (4° C.). (see cell fixation protocol for details). • 4. Fixed cells were stained with 50 uL 0.4% (wt/vol) SRB in 1% acetic acid for 10 minutes. • 5. SRB was removed and the cultures were quickly* rinsed 5 times with 1% acetic acid to remove unbound dye.** • 6. Cultures were air-dried overnight until there is no visible moisture. • 7. The cellular protein-bound SRB was dissolved with 200 uL unbuffered Tris base (10 mM, pH 10.5) for 30 minutes on a rocking platform shaker. • 8. Absorbance was read at 540 nm. • * quickly performing rinsing process is to prevent desorption of protein-bound SRB • ** completely remove residual wash solution by sharply flicking plates over sink. Fixation of Cells Attached to the Plastic Substratum
(§3) The following protocol was used for fixing cells: • a. 50 uL of 50% TCA (4° C.) were gently layered on the top of growth medium in each well to make a final TCA concentration of 10%. • b. Cultures were incubated at 4° C. for 1 hour. • c. Cultures were washed 5 times with tap water to remove TCA, growth medium, low-molecular-weight metabolites, and serum protein. • d. Plates were air-dried until there was no visible moisture.

[3] = test system: DU 145 prostate cancer cell line; test: Cytotoxicity, SRB assay, DU 145; assay type: cell-based, human; conditions: Homo sapiens
Experimental: as §2, with “Cells were detached with 0.25% trypsin. • 2.” left out, “The cellular protein-bound SRB was dissolved with 200 uL unbuffered Tris base (10 mM, pH 10.5) for 30 minutes on a rocking platform shaker. • 8.” left out
as §3

[4] = test system: PPC-1 prostate cancer cell line; test: Cytotoxicity, SRB assay, PPC-1; assay type: cell-based, human; conditions: Homo sapiens
Experimental: as §2, with “Cells were detached with 0.25% trypsin. • 2.” left out, “The cellular protein-bound SRB was dissolved with 200 uL unbuffered Tris base (10 mM, pH 10.5) for 30 minutes on a rocking platform shaker. • 8.” left out
as §3

[5] = test system: CV-1 control cell line; test: Cytotoxicity, SRB assay, CV-1 control; assay type: cell-based, African green monkey; conditions: Chlorocebus sabaeus, read-out: IC50 CV-1
Experimental: as §2, §3

[6] = test system: MCF-7 breast adenocarcinoma cell line; test: Cytotoxicity, SRB assay, MCF-7; assay type: cell-based; conditions: Homo sapiens, Example 4
Experimental: as §2, §3

[7] = test system: TCCSUP cells; test: Induction of apoptosis, TCCSUP; assay type: cell-based, human
Experimental: as §1

[8] = test system: CV-1 cells; test: Induction of apoptosis, CV-1; assay type: cell-based, African green monkey
Experimental: as §1

[9] = test system: TSU prostate cancer cell line; test: Cytotoxicity, SRB assay, TSU; assay type: cell-based, human; conditions: Homo sapiens, read-out: IC50 TSU
Experimental: as §2, with “Cells were detached with 0.25% trypsin. • 2.” left out, “The cellular protein-bound SRB was dissolved with 200 uL unbuffered Tris base (10 mM, pH 10.5) for 30 minutes on a rocking platform shaker. • 8.” left out
as §3

[10] = test system: TSU cells; test: Induction of apoptosis, TSU; assay type: cell-based, human
Experimental: as §1

[11] = test system: HT-29 cells; test: Induction of apoptosis, HT-29; assay type: cell-based, human
Experimental: as §1

[12] = test system: HT-29 colorectal adenocarcinoma cell line; test: Cytotoxicity, SRB assay, HT-29; assay type: cell-based, human; conditions: Homo sapiens
Experimental: as §2, with “Cells were detached with 0.25% trypsin. • 2.” left out, “The cellular protein-bound SRB was dissolved with 200 uL unbuffered Tris base (10 mM, pH 10.5) for 30 minutes on a rocking platform shaker. • 8.” left out
as §3

[13] = test system: LNCaP cells; test: Induction of apoptosis, LNCaP; assay type: cell-based, human
Experimental: as §1

[14] = test system: PPC-1 cells; test: Induction of apoptosis, PPC-1; assay type: cell-based, human
Experimental: as §1

[15] = test system: TCCSUP bladder cancer cell line; test: Cytotoxicity, SRB assay, TCCSUP; assay type: cell-based, human; conditions: Homo sapiens, TCC-SUP, read-out: IC50 TCCSUP
Experimental: as §2, with “Cells were detached with 0.25% trypsin. • 2.” left out, “The cellular protein-bound SRB was dissolved with 200 uL unbuffered Tris base (10 mM, pH 10.5) for 30 minutes on a rocking platform shaker. • 8.” left out
as §3

[16] = test system: AR-expressing LNCaP prostate cancer cell line; test: Cytotoxicity, SRB assay, LNCaP; assay type: cell-based, human; conditions: for IC50: Homo sapiens, LNCaP
Experimental: as §2, with “Cells were detached with 0.25% trypsin. • 2.” left out, “The cellular protein-bound SRB was dissolved with 200 uL unbuffered Tris base (10 mM, pH 10.5) for 30 minutes on a rocking platform shaker. • 8.” left out
as §3

[17] = test system: PC-3 cells; test: Induction of apoptosis, PC-3; assay type: cell-based, human
Experimental: as §1

[18] = test system: DU 145 cells; test: Induction of apoptosis, DU 145; assay type: cell-based, human
Experimental: as §1

[19] = DU-145, 24 h, read-out: IC50 DU 145
[20] = DU-145, 96 h, read-out: IC50 DU 145
[21] = PPC-1, 24 h, read-out: IC50 PPC-1
[22] = PPC-1, 96 h, read-out: IC50 PPC-1
[23] = MCF7, 24 h, drug incubation time 1 day
[24] = MCF7, 96 h, drug incubation time 4 day
[25] = HT-29, 24 h, read-out: IC50 HT-29
[26] = HT-29, 96 h, read-out: IC50 HT-29

C[C@](O)(COc1ccc(NC(=O)CBr)cc1)C(=O)Nc1ccc([N+](=O)[O-])c(C(F)(F)F)c1 [DJ 1-29]
Enrichment factor MCF-7 [1]: 1.617
IC50 ([2]; 24 h): 2.3 ± 0.1 µM
IC50 ([2]; 96 h): 2.4 ± 0.4 µM
IC50 [3, 19]: 0.4 ± 0.1 µM
IC50 [3, 20]: 0.4 ± 0.1 µM
IC50 [4, 21]: 0.9 ± 0.1 µM
IC50 [4, 22]: 1.3 ± 0.1 µM
IC50 ([5]; 24 h): 6.8 ± 0.5 µM
IC50 ([5]; 96 h): 7.3 ± 0.2 µM
IC50 [6, 23]: 11.9 ± 0.3 µM
IC50 [6, 24]: 12.9 ± 0.7 µM
Enrichment factor TCCSUP [7]: 0.000
Enrichment factor CV-1 [8]: 0.786
IC50 ([9]; 24 h): 1.3 ± 0.1 µM
IC50 ([9]; 96 h): 1 ± 0.1 µM
Enrichment factor TSU [10]: 1.008
Enrichment factor HT-29 [11]: 1.667
IC50 [12, 25]: 3.6 ± 0.4 µM
IC50 [12, 26]: 4.4 ± 0.2 µM
Enrichment factor LNCaP [13]: 16.571
Enrichment factor PPC-1 [14]: 1.146
IC50 ([15]; 24 h): 2.6 ± 0.4 µM
IC50 ([15]; 96 h): 2.5 ± 0.4 µM
IC50 ([16]; 24 h, read-out: IC50 LNCaP): 1.1 ± 0.4 µM
IC50 ([16]; 96 h, read-out: IC50 LNCaP): 1.8 ± 0.2 µM
Enrichment factor PC-3 [17]: 0.531
Enrichment factor DU 145 [18]: 18.643

C[C@](O)(COc1ccc(N=C=S)cc1)C(=O)Nc1ccc([N+](=O)[O-])c(C(F)(F)F)c1 [Compound V]
Enrichment factor MCF-7 [1]: 1.926
IC50 ([2]; 24 h): 47.8 ± 4.2 µM
IC50 ([2]; 96 h): 48.5 ± 10.1 µM
IC50 [2]: 59 ± 6 µM
IC50 [3, 19]: 62.1 ± 0.6 µM
IC50 [3, 20]: 69.7 ± 6.5 µM
IC50 ([3]; DU-145, read-out: IC50 DU145): 74.8 ± 1.2 µM
IC50 [4, 21]: 63.7 ± 4.6 µM
IC50 [4, 22]: 62.6 ± 4.9 µM
IC50 ([4]; PPC-1, read-out: IC50 PPC-1): 58.1 ± 5.9 µM
IC50 ([5]; 24 h): > 100 µM
IC50 ([5]; 96 h): > 100 µM
IC50 [6, 23]: 32.7 ± 1.9 µM
IC50 [6, 24]: 39.4 ± 5.4 µM
Enrichment factor TCCSUP [7]: 1.176
Enrichment factor CV-1 [8]: 6.548
IC50 ([9]; 24 h): 54.1 ± 5.5 µM
IC50 ([9]; 96 h): 55 ± 0.8 µM
IC50 [9]: 56.9 ± 2.9 µM
Enrichment factor TSU [10]: 1.167
Enrichment factor HT-29 [11]: 1.410
IC50 [12, 25]: 85.5 ± 4.5 µM
IC50 [12, 26]: 71 ± 1.2 µM
IC50 ([12]; HT-29, read-out: IC50 HT-29): 55 ± 1.7 µM
Enrichment factor LNCaP [13]: 2.000
Enrichment factor PPC-1 [14]: 1.749
IC50 ([15]; 24 h): 90.4 ± 2.2 µM
IC50 ([15]; 96 h): 78.1 ± 11.2 µM
IC50 [15]: > 100 µM
IC50 ([16]; 24 h, read-out: IC50 LNCaP): 19.8 ± 10.5 µM
IC50 ([16]; 24 h, read-out: IC50 LNCaP 24 hr treatment): 39.6 µM
IC50 ([16]; 96 h, read-out: IC50 LNCaP): 12.8 ± 4.1 µM
IC50 ([16]; 144 h, read-out: IC50 LNCaP 6 day treatment): 33.6 µM
IC50 ([16]; read-out: IC50 LNCaP): 26 ± 8.3 µM
Selectivity for the AR-expressing LNCaP prostate cancer cell line ([16]; compared with prostate cancer cell lines not expressing AR, non-prostate cancer cell lines, control cell line): highly selective
Enrichment factor PC-3 [17]: 2.500
Enrichment factor DU 145 [18]: 5.071

C[C@](O)(COc1ccc(NC(=O)CCl)cc1)C(=O)Nc1ccc([N+](=O)[O-])c(C(F)(F)F)c1 [DJ 1-31]
Enrichment factor MCF-7 [1]: 0.938
IC50 ([2]; 24 h): 5.4 ± 0.8 µM
IC50 ([2]; 96 h): 5.3 ± 0.8 µM
IC50 [3, 19]: 1 ± 0.2 µM
IC50 [3, 20]: 0.7 ± 0.1 µM
IC50 [4, 21]: 1.9 ± 0.1 µM
IC50 [4, 22]: 1.9 ± 0.1 µM
IC50 ([5]; 24 h): 5.8 ± 0.3 µM
IC50 ([5]; 96 h): 5.3 ± 0.2 µM
IC50 [6, 23]: 15.8 ± 2.7 µM
IC50 [6, 24]: 14 ± 1.1 µM
Enrichment factor TCCSUP [7]: 0.471
Enrichment factor CV-1 [8]: 0.702
IC50 ([9]; 24 h): 1.3 ± 0.1 µM
IC50 ([9]; 96 h): 1.1 ± 0.1 µM
Enrichment factor TSU [10]: 0.848
Enrichment factor HT-29 [11]: 1.205
IC50 [12, 25]: 5.4 ± 0.1 µM
IC50 [12, 26]: 3.7 ± 0.7 µM
Enrichment factor LNCaP [13]: 1.374
Enrichment factor PPC-1 [14]: 1.312
IC50 ([15]; 24 h): 2.1 ± 0.3 µM
IC50 ([15]; 96 h): 2.1 ± 0.3 µM
IC50 ([16]; 24 h, read-out: IC50 LNCaP): 2.9 ± 1.2 µM
IC50 ([16]; 96 h, read-out: IC50 LNCaP): 3.3 ± 0.4 µM
Enrichment factor PC-3 [17]: 0.594
Enrichment factor DU 145 [18]: 2.500
